From the NIST ThermoML archive (doi:10.1021/je060107n)

Experiment: mn = molality of the nth substance listed, in mol/kg
Conditions: 101 kPa, Liquid; for viscosity: Capillary tube (Ostwald / Ubbelohde) method; for speed of sound: Linear variable-path acoustic interferometer; for mass density: Pycnometric method

CC(=O)[O-].CC(=O)[O-].[Mg+2] [magnesium acetate] + O
Conditions	mass density [kg/m3]	speed of sound [m/s]	viscosity [mPa·s]
273.15 K, m1 = 0.0414	–	1411.1	1.895
273.15 K, m1 = 0.0831	–	1421.7	1.974
273.15 K, m1 = 0.1671	–	1435.8	2.142
273.15 K, m1 = 0.4247	–	1486.1	2.763
273.15 K, m1 = 0.646	–	1523.6	3.52
273.15 K, m1 = 0.8751	–	1563.5	4.302
273.15 K, m1 = 1.106	–	1599.6	5.537
273.15 K, m1 = 1.354	–	1633.9	7.125
273.15 K, m1 = 1.608	–	1670.3	7.125
273.15 K, m1 = 1.866	–	1705.9	12.12
273.15 K, m1 = 2.134	–	1742.2	16.35
273.15 K, m1 = 2.411	–	1777.1	23.36
273.15 K, m1 = 2.622	–	1797.1	28.17
273.15 K, m1 = 3.043	–	1840.9	45.46
273.15 K, m1 = 3.437	–	1885.2	85.35
273.15 K, m1 = 3.819	–	1910.1	–
273.15 K, m1 = 4.001	–	–	167.7
273.15 K, m1 = 4.547	–	1953.7	–
273.15 K, m1 = 4.563	–	–	374.7
278.15 K, m1 = 0.0414	–	1433.9	1.603
278.15 K, m1 = 0.0831	–	1443.6	1.663
278.15 K, m1 = 0.1671	–	1458.6	1.805
278.15 K, m1 = 0.4247	–	1504.5	2.301
278.15 K, m1 = 0.646	–	1539.4	2.887
278.15 K, m1 = 0.8751	–	1571.6	3.533
278.15 K, m1 = 1.106	–	1611.8	4.511
278.15 K, m1 = 1.354	–	1644.1	5.709
278.15 K, m1 = 1.608	–	1679.6	5.709
278.15 K, m1 = 1.866	–	1713	9.522
278.15 K, m1 = 2.134	–	1746.8	12.57
278.15 K, m1 = 2.411	–	1780.1	17.59
278.15 K, m1 = 2.622	–	1799.2	21.2
278.15 K, m1 = 3.043	–	1839.8	33.22
278.15 K, m1 = 3.437	–	1881.6	59.47
278.15 K, m1 = 3.819	–	1903.6	–
278.15 K, m1 = 4.001	–	–	110.6
278.15 K, m1 = 4.547	–	1945.3	–
278.15 K, m1 = 4.563	–	–	234.4
283.15 K, m1 = 0.0414	–	1453.9	1.374
283.15 K, m1 = 0.0831	–	1464.2	1.423
283.15 K, m1 = 0.1671	–	1477	1.54
283.15 K, m1 = 0.4247	–	1522.7	1.954
283.15 K, m1 = 0.646	–	1553.8	2.444
283.15 K, m1 = 0.8751	–	1584.2	2.956
283.15 K, m1 = 1.106	–	1622.1	3.725
283.15 K, m1 = 1.354	–	1651.4	4.687
283.15 K, m1 = 1.608	–	1685.9	4.687
283.15 K, m1 = 1.866	–	1718.2	7.615
283.15 K, m1 = 2.134	–	1750.4	9.905
283.15 K, m1 = 2.411	–	1781.4	13.67
283.15 K, m1 = 2.622	–	1799.1	16.25
283.15 K, m1 = 3.043	–	1838.2	24.92
283.15 K, m1 = 3.437	–	1877.4	43.12
283.15 K, m1 = 3.819	–	1897.9	–
283.15 K, m1 = 4.001	–	–	77.03
283.15 K, m1 = 4.547	–	1936.1	–
283.15 K, m1 = 4.563	–	–	153.7
283.15 K, m1 = 4.929	–	–	208.4
283.15 K, m1 = 5.165	–	1964.1	–
288.15 K, m1 = 0.0414	–	1471.7	1.196
288.15 K, m1 = 0.0831	–	1481.5	1.238
288.15 K, m1 = 0.1671	–	1494.1	1.335
288.15 K, m1 = 0.4247	–	1535.1	1.677
288.15 K, m1 = 0.646	–	1566.5	2.072
288.15 K, m1 = 0.8751	–	1601.1	2.499
288.15 K, m1 = 1.106	–	1631.4	3.138
288.15 K, m1 = 1.354	–	1659.4	3.895
288.15 K, m1 = 1.608	–	1692.8	3.895
288.15 K, m1 = 1.866	–	1722.3	6.192
288.15 K, m1 = 2.134	–	1752.7	8.005
288.15 K, m1 = 2.411	–	1782.9	10.8
288.15 K, m1 = 2.622	–	1799.1	12.79
288.15 K, m1 = 3.043	–	1835.6	19.07
288.15 K, m1 = 3.437	–	1872.2	31.95
288.15 K, m1 = 3.819	–	1891.9	–
288.15 K, m1 = 4.001	–	–	55.77
288.15 K, m1 = 4.547	–	1927.4	–
288.15 K, m1 = 4.563	–	–	105.5
288.15 K, m1 = 4.929	–	–	140.3
288.15 K, m1 = 5.165	–	1953.3	–
293.15 K, m1 = 0.0414	–	1487.6	1.052
293.15 K, m1 = 0.0831	–	1497.5	1.089
293.15 K, m1 = 0.1671	–	1508.3	1.17
293.15 K, m1 = 0.4247	–	1545.4	1.461
293.15 K, m1 = 0.646	–	1577.8	1.788
293.15 K, m1 = 0.8751	–	1609.8	2.15
293.15 K, m1 = 1.106	–	1639.8	2.678
293.15 K, m1 = 1.354	–	1665.7	3.294
293.15 K, m1 = 1.608	–	1697.3	3.294
293.15 K, m1 = 1.866	–	1725.6	5.143
293.15 K, m1 = 2.134	–	1754.5	6.573
293.15 K, m1 = 2.411	–	1782.6	8.745
293.15 K, m1 = 2.622	–	1798.8	10.25
293.15 K, m1 = 3.043	–	1832.8	14.98
293.15 K, m1 = 3.437	–	1866.8	24.4
293.15 K, m1 = 3.819	–	1884.3	–
293.15 K, m1 = 4.001	–	–	41.34
293.15 K, m1 = 4.547	–	1917.4	–
293.15 K, m1 = 4.563	–	–	75.04
293.15 K, m1 = 4.929	–	–	97.76
293.15 K, m1 = 5.165	–	1940.8	–
293.15 K, m1 = 5.732	–	1954.7	–
294.9 K, m1 = 2.411	1149	–	–
295.15 K, m1 = 0.4247	1029.4	–	–
295.15 K, m1 = 0.8751	1059.6	–	–
295.4 K, m1 = 0.1671	1010.2	–	–
296 K, m1 = 1.354	1089.6	–	–
296.1 K, m1 = 1.866	1118.6	–	–
297.95 K, m1 = 2.411	1147.7	–	–
298.05 K, m1 = 1.106	1074.8	–	–
298.15 K, m1 = 0.0414	–	1501.7	0.9322
298.15 K, m1 = 0.0831	–	1510.4	0.964
298.15 K, m1 = 0.1671	–	1520.6	1.034
298.15 K, m1 = 0.4247	–	1556.9	1.286
298.15 K, m1 = 0.646	–	1587.3	1.566
298.15 K, m1 = 0.8751	–	1616.2	1.873
298.15 K, m1 = 1.106	–	1645.9	2.31
298.15 K, m1 = 1.354	–	1671.1	2.821
298.15 K, m1 = 1.608	–	1700.3	2.821
298.15 K, m1 = 1.866	–	1727.7	4.32
298.15 K, m1 = 2.134	–	1754.6	5.472
298.15 K, m1 = 2.411	–	1781.9	7.183
298.15 K, m1 = 2.622	–	1797.3	8.354
298.15 K, m1 = 3.043	–	1829.5	12.02
298.15 K, m1 = 3.437	–	1861.2	19.05
298.15 K, m1 = 3.819	–	1878	–
298.15 K, m1 = 4.001	–	–	31.38
298.15 K, m1 = 4.547	–	1908	–
298.15 K, m1 = 4.563	–	–	55
298.15 K, m1 = 4.929	–	–	70.36
298.15 K, m1 = 5.165	–	1929.7	–
298.15 K, m1 = 5.41	–	–	141.2
298.15 K, m1 = 5.732	–	1940.2	–
298.3 K, m1 = 3.043	1175	–	–
298.7 K, m1 = 2.134	1132.2	–	–
298.75 K, m1 = 0.0831	1003.1	–	–
298.8 K, m1 = 3.437	1195.5	–	–
298.85 K, m1 = 0.646	1044	–	–
298.95 K, m1 = 0.8751	1058.5	–	–
299.15 K, m1 = 0.4247	1028.4	–	–
299.2 K, m1 = 2.622	1155.8	–	–
299.3 K, m1 = 1.866	1117.5	–	–
299.55 K, m1 = 5.732	1267.4	–	–
299.6 K, m1 = 0.1671	1009.1	–	–
299.65 K, m1 = 1.354	1088.4	–	–
300.6 K, m1 = 1.608	1103.6	–	–
300.85 K, m1 = 0.0414	999.3	–	–
301 K, m1 = 2.411	1146.5	–	–
301.05 K, m1 = 3.043	1173.8	–	–
301.35 K, m1 = 1.327	1086.4	–	–
301.5 K, m1 = 3.437	1194.2	–	–
301.55 K, m1 = 2.134	1131.1	–	–
301.7 K, m1 = 1.106	1073.7	–	–
301.75 K, m1 = 5.732	1266	–	–
302.05 K, m1 = 2.622	1154.6	–	–
302.05 K, m1 = 3.819	1205.9	–	–
302.25 K, m1 = 0.646	1043	–	–
302.4 K, m1 = 1.866	1116.3	–	–
302.4 K, m1 = 5.165	1249.6	–	–
302.5 K, m1 = 0.0831	1002	–	–
302.55 K, m1 = 0.8751	1057.4	–	–
302.7 K, m1 = 1.354	1087.4	–	–
302.75 K, m1 = 0.4247	1027.2	–	–
302.95 K, m1 = 4.547	1229.9	–	–
303.15 K, m1 = 0.0414	–	1513.4	0.835
303.15 K, m1 = 0.0831	–	1521.5	0.8624
303.15 K, m1 = 0.1671	–	1532.2	0.9234
303.15 K, m1 = 0.4247	–	1567.4	1.141
303.15 K, m1 = 0.646	–	1595.7	1.383
303.15 K, m1 = 0.8751	–	1625.4	1.64
303.15 K, m1 = 1.106	–	1651.6	2.014
303.15 K, m1 = 1.354	–	1676.1	2.446
303.15 K, m1 = 1.608	–	1703	2.446
303.15 K, m1 = 1.866	–	1728.9	3.688
303.15 K, m1 = 2.134	–	1755.5	4.619
303.15 K, m1 = 2.411	–	1781.3	6.056
303.15 K, m1 = 2.622	–	1795.2	6.928
303.15 K, m1 = 3.043	–	1824.8	9.798
303.15 K, m1 = 3.437	–	1855.5	15.2
303.15 K, m1 = 3.819	–	1870.5	–
303.15 K, m1 = 4.001	–	–	24.27
303.15 K, m1 = 4.547	–	1899.1	–
303.15 K, m1 = 4.563	–	–	41.02
303.15 K, m1 = 4.929	–	–	51.77
303.15 K, m1 = 5.165	–	1919	–
303.15 K, m1 = 5.41	–	–	99.4
303.15 K, m1 = 5.732	–	1926.8	135.8
303.3 K, m1 = 0.1671	1008	–	–
303.65 K, m1 = 1.608	1102.5	–	–
303.75 K, m1 = 2.411	1145.4	–	–
303.75 K, m1 = 3.043	1172.5	–	–
303.75 K, m1 = 5.732	1264.8	–	–
303.9 K, m1 = 3.437	1193.1	–	–
304.4 K, m1 = 3.819	1204.7	–	–
304.45 K, m1 = 0.0414	998.24	–	–
304.55 K, m1 = 2.134	1129.8	–	–
304.6 K, m1 = 5.165	1248.3	–	–
304.7 K, m1 = 1.327	1085.2	–	–
304.8 K, m1 = 2.622	1153.3	–	–
304.95 K, m1 = 1.106	1072.5	–	–
305.35 K, m1 = 4.547	1228.6	–	–
